Measured values as given in US20260053812A1, “METHODS OF TREATING HYPERTENSION WITH A COMBINATION OF AN ALDOSTERONE SYNTHASE INHIBITOR AND A DIURETIC” (Mineralys Therapeutics, Inc., priority 2022, published 2026).
“And” between values parts separate entries of the source, which are not always exact repeats. Equal entries are not always repeated.

How the values were obtained:
serum cortisol = assay: Pharmacodynamics: serum cortisol; type: in vivo, human; conditions: for Cortisol, mean observed: BL
Excerpt: PK/PD Analysis Set includes all subjects in the SAF who have sufficient data available for the analysis of pharmacokinetic and pharmacodynamic measurements. In the analyses based on PKPD, subjects will be analyzed according to the actual treatment received.

[1] = Estimated glomerular filtration rate (eGFR, CKD-EPI equation); type: in vivo, human; conditions: for Estimated Glomerular Filtration Rate, mean observed / Estimated Glomerular Filtration Rate, mean change from baseline: Part 1

Structure (SMILES): CC(=O)N[C@H]1CC[C@H](NC(=O)CN2CCN(c3nncc(-c4ccc(C)cc4)n3)CC2)CC1 [Compound A HBr]
- Cortisol, mean observed (serum cortisol; Part 1, 12.5 mg BID): 10.195 µg/dL
- Cortisol, mean observed (serum cortisol; Part 1, 12.5 mg QD): 9.443 µg/dL
- Cortisol, mean observed (serum cortisol; Part 1, 25 mg BID): 10.577 µg/dL
- Cortisol, mean observed (serum cortisol; Part 1, 50 mg QD): 10.807 µg/dL
- Cortisol, mean observed (serum cortisol; Part 1, 100 mg QD): 11.272 µg/dL
- Serum cortisol percent change from baseline (serum cortisol; Part 1 active arms (range across doses), Week 4): 3.8% to 19.2%
- Serum cortisol percent change from baseline (serum cortisol; Part 1 active arms (range across doses), Week 8): 20.6% to 51.4%
- Serum cortisol percent change from baseline (serum cortisol; Part 1 active arms (range across doses), Week 12, listed as lorundrostat): −1.2% to 22.7% and −1.2 to 22.6%
- Serum cortisol percent change from baseline (serum cortisol; Part 2 100 mg QD, Week 12): 1.5%
- Cortisol, mean observed (serum cortisol; Part 2, 100 mg QD): 11.118 µg/dL
- Serum cortisol percent change from baseline (serum cortisol; Part 2, 100 mg QD, Week 4): 20.1%
- Serum cortisol percent change from baseline (serum cortisol; Part 2, 100 mg QD, Week 8): 153.4%
- Adrenocortical insufficiency (serum cortisol; during the trial, listed as lorundrostat): no adrenocortical insufficiency
- Effect on serum cortisol (serum cortisol; pooled (Part 1 and Part 2) 100 mg QD safety set (n=60)): no effects on serum cortisol
- Morning serum cortisol levels (serum cortisol; summary of trial): modestly increased
- eGFR mean maximum decline relative to baseline ([1]; 100 mg QD, Part 1, Week 2): 10.91 mL/min/1.73 m^2
- Estimated Glomerular Filtration Rate, mean observed ([1]; 12.5 mg BID, BL): 81.70 mL/min/1.73 m^2
- Estimated Glomerular Filtration Rate, mean change from baseline ([1]; 12.5 mg BID, Week 1): −2.25 mL/min/1.73 m^2
- Estimated Glomerular Filtration Rate, mean observed ([1]; 12.5 mg BID, Week 1): 79.45 mL/min/1.73 m^2
- Estimated Glomerular Filtration Rate, mean change from baseline ([1]; 12.5 mg BID, Week 2): −3.69 mL/min/1.73 m^2
- Estimated Glomerular Filtration Rate, mean observed ([1]; 12.5 mg BID, Week 2): 78.86 mL/min/1.73 m^2
- Estimated Glomerular Filtration Rate, mean change from baseline ([1]; 12.5 mg BID, Week 3): −5.17 mL/min/1.73 m^2
- Estimated Glomerular Filtration Rate, mean observed ([1]; 12.5 mg BID, Week 3): 77.38 mL/min/1.73 m^2
- Estimated Glomerular Filtration Rate, mean change from baseline ([1]; 12.5 mg BID, Week 4): −6.58 mL/min/1.73 m^2
- Estimated Glomerular Filtration Rate, mean observed ([1]; 12.5 mg BID, Week 4): 76.30 mL/min/1.73 m^2
- Estimated Glomerular Filtration Rate, mean change from baseline ([1]; 12.5 mg BID, Week 5): −7.58 mL/min/1.73 m^2
- Estimated Glomerular Filtration Rate, mean observed ([1]; 12.5 mg BID, Week 5): 73.84 mL/min/1.73 m^2
- Estimated Glomerular Filtration Rate, mean change from baseline ([1]; 12.5 mg BID, Week 6): −6.45 mL/min/1.73 m^2
- Estimated Glomerular Filtration Rate, mean observed ([1]; 12.5 mg BID, Week 6): 74.70 mL/min/1.73 m^2
- Estimated Glomerular Filtration Rate, mean change from baseline ([1]; 12.5 mg BID, Week 7): −7.03 mL/min/1.73 m^2
- Estimated Glomerular Filtration Rate, mean observed ([1]; 12.5 mg BID, Week 7): 75.85 mL/min/1.73 m^2
- Estimated Glomerular Filtration Rate, mean change from baseline ([1]; 12.5 mg BID, Week 8): −6.66 mL/min/1.73 m^2
- Estimated Glomerular Filtration Rate, mean observed ([1]; 12.5 mg BID, Week 8): 76.32 mL/min/1.73 m^2
- Estimated Glomerular Filtration Rate, mean observed ([1]; 12.5 mg QD, BL): 77.87 mL/min/1.73 m^2
- Estimated Glomerular Filtration Rate, mean change from baseline ([1]; 12.5 mg QD, Week 1): −4.30 mL/min/1.73 m^2
- Estimated Glomerular Filtration Rate, mean observed ([1]; 12.5 mg QD, Week 1): 73.57 mL/min/1.73 m^2
- Estimated Glomerular Filtration Rate, mean change from baseline ([1]; 12.5 mg QD, Week 2): −4.87 mL/min/1.73 m^2
- Estimated Glomerular Filtration Rate, mean observed ([1]; 12.5 mg QD, Week 2): 73.00 mL/min/1.73 m^2
- Estimated Glomerular Filtration Rate, mean change from baseline ([1]; 12.5 mg QD, Week 3): −2.05 mL/min/1.73 m^2
- Estimated Glomerular Filtration Rate, mean observed ([1]; 12.5 mg QD, Week 3): 77.21 mL/min/1.73 m^2
- Estimated Glomerular Filtration Rate, mean change from baseline ([1]; 12.5 mg QD, Week 4): −5.45 mL/min/1.73 m^2
- Estimated Glomerular Filtration Rate, mean observed ([1]; 12.5 mg QD, Week 4): 73.40 mL/min/1.73 m^2
- Estimated Glomerular Filtration Rate, mean change from baseline ([1]; 12.5 mg QD, Week 5): −3.60 mL/min/1.73 m^2
- Estimated Glomerular Filtration Rate, mean observed ([1]; 12.5 mg QD, Week 5): 75.25 mL/min/1.73 m^2
- Estimated Glomerular Filtration Rate, mean change from baseline ([1]; 12.5 mg QD, Week 6): −6.28 mL/min/1.73 m^2
- Estimated Glomerular Filtration Rate, mean observed ([1]; 12.5 mg QD, Week 6): 73.39 mL/min/1.73 m^2
- Estimated Glomerular Filtration Rate, mean change from baseline ([1]; 12.5 mg QD, Week 7): −7.17 mL/min/1.73 m^2
- Estimated Glomerular Filtration Rate, mean observed ([1]; 12.5 mg QD, Week 7): 72.50 mL/min/1.73 m^2
- Estimated Glomerular Filtration Rate, mean change from baseline ([1]; 12.5 mg QD, Week 8): −3.67 mL/min/1.73 m^2
- Estimated Glomerular Filtration Rate, mean observed ([1]; 12.5 mg QD, Week 8): 76.00 mL/min/1.73 m^2
- Estimated Glomerular Filtration Rate, mean observed ([1]; 25 mg BID, BL): 80.85 mL/min/1.73 m^2
- Estimated Glomerular Filtration Rate, mean change from baseline ([1]; 25 mg BID, Week 1): −6.85 mL/min/1.73 m^2
- Estimated Glomerular Filtration Rate, mean observed ([1]; 25 mg BID, Week 1): 74.00 mL/min/1.73 m^2
- Estimated Glomerular Filtration Rate, mean change from baseline ([1]; 25 mg BID, Week 2): −5.42 mL/min/1.73 m^2
- Estimated Glomerular Filtration Rate, mean observed ([1]; 25 mg BID, Week 2): 75.43 mL/min/1.73 m^2
- Estimated Glomerular Filtration Rate, mean change from baseline ([1]; 25 mg BID, Week 3): −5.90 mL/min/1.73 m^2
- Estimated Glomerular Filtration Rate, mean observed ([1]; 25 mg BID, Week 3): 75.07 mL/min/1.73 m^2
- Estimated Glomerular Filtration Rate, mean change from baseline ([1]; 25 mg BID, Week 4): −6.69 mL/min/1.73 m^2
- Estimated Glomerular Filtration Rate, mean observed ([1]; 25 mg BID, Week 4): 73.48 mL/min/1.73 m^2
- Estimated Glomerular Filtration Rate, mean change from baseline ([1]; 25 mg BID, Week 5): −7.41 mL/min/1.73 m^2
